Reference: patent US6939858B2, “Malto-oligosaccharide derivatives and use thereof” (Kikkoman Corporation, priority 2000, dated 2005)

Key:
[1] = target: T1, HSA (α-amylase derived from human salivary gland) (Homo sapiens, UniProt P0DUB6); assay: Inhibition of human α-amylase activity in vitro (blue starch, Neo·Amylase Test), HSA; type: biochemical; settings: final concentration of inhibitor reducing 50% of the activity of the HSA solution; 37° C., 30 minutes
T1 construct: purchased International Reagents Corp., Japan Calibzyme·AMY
T1 sequence (P0DUB6 16-511): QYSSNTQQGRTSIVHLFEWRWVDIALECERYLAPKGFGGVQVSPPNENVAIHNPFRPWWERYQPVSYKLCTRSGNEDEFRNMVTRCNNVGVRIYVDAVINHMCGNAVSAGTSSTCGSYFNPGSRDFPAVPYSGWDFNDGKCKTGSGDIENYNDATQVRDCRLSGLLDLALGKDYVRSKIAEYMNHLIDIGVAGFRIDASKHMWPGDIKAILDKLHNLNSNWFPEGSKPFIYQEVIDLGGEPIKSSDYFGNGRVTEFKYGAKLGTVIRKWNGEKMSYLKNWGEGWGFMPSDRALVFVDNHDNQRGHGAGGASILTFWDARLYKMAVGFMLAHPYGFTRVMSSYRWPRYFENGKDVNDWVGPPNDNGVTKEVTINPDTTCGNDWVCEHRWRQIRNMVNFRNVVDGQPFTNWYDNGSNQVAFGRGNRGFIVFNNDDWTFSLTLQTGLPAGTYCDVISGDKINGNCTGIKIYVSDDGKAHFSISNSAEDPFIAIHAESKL
Procedure: (§1) Purified water was added to commercial HPA and HSA to dissolve them to a concentration of 350 IU/1 to prepare an α-amylase solution. “Calibzyme·AMY” (produced by International Reagents Corp., Japan) was used as this commercial human α-amylase. The α-amylase activity was determined with reference to the calibration curves of a commercial α-amylase determining reagent “Neo·Amylase Test, Daiichi” (produced by Daiichi Pure Chemicals Co., Ltd., Japan).
(§2) To 100 μl of the HPA or HSA solution were added 3.0 ml of purified water, 1.0 ml of inhibitor solution and one tablet of blue starch of “Neo·Amylase Test, Daiichi” (produced by Daiichi Pure Chemicals Co., Ltd., Japan). After stirring by a mixer for about 10 seconds, the mixture was warmed at 37° C. for 30 minutes and then further stirred by adding 1.0 ml of a 0.5 N sodium hydroxide solution to cease the reaction, after which the solution was centrifuged (1,500 G, 5 min.) and absorbance of the supernatant at 620 nm was measured. As a blank, purified water was used instead of the inhibitor solution.

mice [Crj:CD-1 (ICR)] = assay: Anti-diabetic activity: blood glucose level after oral corn starch loading in mice; type: in vivo; settings: mice unfed 20 hours; oral DOGGDN 10 mg, 5 mg and 1 mg with 2,000 mg corn starch per kg; 0.5-4.0 hours; t-test; FIG. 1
Procedure: Commercially available healthy mice [Crj:CD-1 (ICR) available from Japan Charles River Co., Ltd.
Blood was collected from the orbital veniplex of each mouse just before administration and after the lapse of 0.5 hour, 1.0 hour, 1.5 hours, 2.0 hours, 3.0 hours and 4.0 hours after administration, and the concentration of glucose in the blood [blood glucose level (mg/dl)] was measured to examine the inhibitory effect against rise of blood glucose level after intake of corn starch, i.e. the anti-diabetic action. The inhibitory effect against rise of blood sugar level was judged by the t-test. The glucose concentration in the blood was determined using a blood glucose level analyzer “[sequence]” [mfd. by Bayer Sankyo Co., Ltd.].

[2] = target: T2, HPA (α-amylase derived from human pancreatic juice) (Homo sapiens, UniProt P04746); assay: Inhibition of human α-amylase activity in vitro (blue starch, Neo·Amylase Test), HPA; type: biochemical; settings: final concentration of inhibitor reducing 50% of the activity of the HPA solution; 37° C., 30 minutes
T2 construct: purchased International Reagents Corp., Japan Calibzyme·AMY
T2 sequence (P04746 16-511): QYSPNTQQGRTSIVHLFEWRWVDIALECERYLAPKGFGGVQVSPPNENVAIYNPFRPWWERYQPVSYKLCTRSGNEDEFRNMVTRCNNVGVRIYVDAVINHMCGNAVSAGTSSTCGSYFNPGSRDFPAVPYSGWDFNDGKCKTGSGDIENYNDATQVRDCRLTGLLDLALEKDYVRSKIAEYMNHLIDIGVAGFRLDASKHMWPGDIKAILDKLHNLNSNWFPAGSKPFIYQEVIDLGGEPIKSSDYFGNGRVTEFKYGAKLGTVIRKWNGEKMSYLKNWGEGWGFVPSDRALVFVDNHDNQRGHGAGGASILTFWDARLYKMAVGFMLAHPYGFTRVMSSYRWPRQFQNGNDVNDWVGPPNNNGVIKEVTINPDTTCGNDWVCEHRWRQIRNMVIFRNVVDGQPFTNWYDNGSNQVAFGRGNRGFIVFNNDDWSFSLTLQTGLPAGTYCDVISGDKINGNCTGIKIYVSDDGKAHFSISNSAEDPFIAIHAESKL
Procedure: as §1, §2

CC1OC(OC2C(CO)OC(OC3C(CO)NCC(O)C3O)C(O)C2O)C(O)C(O)C1O [DOGGDN, O-(6-deoxy)-α-D-glucopyranosyl-(1→4)-O-(α-D-glucopyranosyl)-(1→4)-deoxynojirimycin]
IC50 [1]: 0.03 mM
rise of blood glucose level as compared with the control group (mice [Crj:CD-1 (ICR)]): reduced significantly

CC1OC(OC2C(CO)OC(OC3C(CO)NCC(O)C3O)C(O)C2O)C(O)C(O)C1OC1OC(CO)C(O)C(O)C1O [GDOGGDN, O-(α-D-glucopyranosyl)-(1→4)-O-(6-deoxy-α-D-glucopyranosyl)-(1→4)-O-(α-D-glucopyranosyl)-(1→4)-deoxynojirimycin]
IC50 [2]: 0.05 mM
IC50 [1]: 0.03 mM

OCC1NCC(O)C(O)C1OC1OC(CO)C(OC2OC(CO)C(O)C(O)C2O)C(O)C1O (stereo not drawn) [GGDN, Maltosyl-deoxynojirimycin, reference compound]
IC50 [2]: 0.26 mM
IC50 [1]: 0.26 mM
